Where “and” joins values, the source holds several entries; their conditions need not be identical. Equal entries are not always repeated. Inconclusive results and toxic doses are left out.
Test system: BDF1 mice, intracerebral B16 melanoma, median survival T/C
Test: NCI In Vivo Anticancer Drug Screen. Data for tumor model B16 Melanoma (intracerebral) in B6D2F1 (BDF1) mice
Conditions: endpoint: median survival time, higher = longer survival
Experimental: The antitumor activity of compounds was measured in mice bearing transplantable tumors. Survival or tumor size were measured and the results are expressed as the measurement made in the treated group (T) divided by the measurement made in the vehicle treated control group (C). The tumor model used in this assay is B16 Melanoma (intracerebral) in B6D2F1 (BDF1) mice

[1] = dose: 10.0 mg/kg/injection, schedule: Q01DX009 (ip), vehicle: saline
[2] = dose: 5.0 mg/kg/injection, schedule: Q01DX009 (ip), vehicle: saline
[3] = dose: 20.0 mg/kg/injection, schedule: Q01DX009 (ip), vehicle: saline
[4] = dose: 40.0 mg/kg/injection, schedule: Q01DX009 (ip), vehicle: saline
[5] = dose: 6.25 mg/kg/injection, schedule: Q01DX009 (ip), vehicle: other
[6] = dose: 12.5 mg/kg/injection, schedule: Q01DX009 (ip), vehicle: other
[7] = dose: 25.0 mg/kg/injection, schedule: Q01DX009 (ip), vehicle: other
[8] = dose: 100.0 mg/kg/injection, schedule: Q01DX009 (ip), vehicle: other

Structure (SMILES): NC(=S)N/N=C/c1ccc(O)cn1
- T/C (dose: 12.0 mg/kg/injection, schedule: Q01DX005 (ip), vehicle: saline): 96 % of control
- T/C (dose: 12.0 mg/kg/injection, schedule: Q01DX005 (ip), vehicle: suspension in saline): 103 % of control
- T/C (dose: 24.0 mg/kg/injection, schedule: Q01DX005 (ip), vehicle: saline): 93 % of control
- T/C (dose: 24.0 mg/kg/injection, schedule: Q01DX005 (ip), vehicle: suspension in saline): 96 % of control
- T/C (dose: 48.0 mg/kg/injection, schedule: Q01DX005 (ip), vehicle: saline): 100 % of control
- T/C (dose: 48.0 mg/kg/injection, schedule: Q01DX005 (ip), vehicle: suspension in saline): 91 % of control
- T/C (dose: 96.0 mg/kg/injection, schedule: Q01DX005 (ip), vehicle: saline): 97 % of control
- T/C (dose: 96.0 mg/kg/injection, schedule: Q01DX005 (ip), vehicle: suspension in saline): 108 % of control

Structure (SMILES): C[C@]1(O)CC[C@H]2[C@@H]3CCC4=CC(=O)CC[C@]4(C)[C@@]3(F)[C@@H](O)C[C@@]21C
- T/C (dose: 8.0 mg/kg/injection, schedule: Q01DX009 (ip), vehicle: Klucel (hydroxypropylcellulose) (HPC)): 115 % of control
- T/C (dose: 64.0 mg/kg/injection, schedule: Q01DX009 (ip), vehicle: Klucel (hydroxypropylcellulose) (HPC)): 111 % of control
- T/C (dose: 128.0 mg/kg/injection, schedule: Q01DX009 (ip), vehicle: Klucel (hydroxypropylcellulose) (HPC)): 111 % of control
- T/C (dose: 256.0 mg/kg/injection, schedule: Q01DX009 (ip), vehicle: Klucel (hydroxypropylcellulose) (HPC)): 95 % of control

Structure (SMILES): CS(=O)(=O)Nc1ccc(Nc2c3ccccc3nc3cc([N+](=O)[O-])ccc23)cc1
- T/C (dose: 25.0 mg/kg/injection, schedule: Q04DX003 (ip), vehicle: saline sonified): 100 % of control
- T/C (dose: 50.0 mg/kg/injection, schedule: Q04DX003 (ip), vehicle: saline sonified): 95 % of control
- T/C (dose: 75.0 mg/kg/injection, schedule: Q04DX003 (ip), vehicle: saline sonified): 87 % of control

Structure (SMILES): O=NN(CCF)C(=O)NC1CCC(=O)NC1=O (stereo not given)
- T/C (dose: 26.7 mg/kg/injection, schedule: Q01DX001 (ip), vehicle: Klucel (hydroxypropylcellulose) (HPC)): 115 % of control
- T/C (dose: 40.0 mg/kg/injection, schedule: Q01DX001 (ip), vehicle: Klucel (hydroxypropylcellulose) (HPC)): 111 % of control
- T/C (dose: 60.0 mg/kg/injection, schedule: Q01DX001 (ip), vehicle: Klucel (hydroxypropylcellulose) (HPC)): 157 % of control

Structure (SMILES): O=NN(CCCl)C(=O)NC1[C@H](O)CCC[C@@H]1O (stereo not given in full)
- T/C (dose: 4.32 mg/kg/injection, schedule: Q01DX001 (ip), vehicle: saline): 104 % of control
- T/C (dose: 12.0 mg/kg/injection, schedule: Q01DX001 (ip), vehicle: saline): 152 % of control

Structure (SMILES): Cc1c2ccncc2c(C)c2c1[nH]c1ccccc12
- T/C [1]: 113 % of control

Structure (SMILES): CC(=O)NNC(=O)c1ccccn1
- T/C (dose: 100.0 mg/kg/injection, schedule: Q01DX005 (ip), vehicle: Klucel (hydroxypropylcellulose) (HPC)): 104 % of control and 108 % of control
- T/C (dose: 200.0 mg/kg/injection, schedule: Q01DX005 (ip), vehicle: Klucel (hydroxypropylcellulose) (HPC)): 100 % of control

Structure (SMILES): CN(Cc1cnc2nc(N)nc(N)c2n1)c1ccc(C(=O)N[C@@H](CCC(=O)O)C(=O)O)cc1
- T/C (dose: 0.38 mg/kg/injection, schedule: Q01DX009 (ip), vehicle: saline): 108 % of control
- T/C (dose: 0.5 mg/kg/injection, schedule: Q01DX009 (ip), vehicle: sodium bicarbonate): 104 % of control
- T/C (dose: 0.75 mg/kg/injection, schedule: Q01DX009 (ip), vehicle: saline): 100 % of control and 104 % of control
- T/C (dose: 1.0 mg/kg/injection, schedule: Q01DX009 (ip), vehicle: sodium bicarbonate): 100 % of control
- T/C (dose: 1.5 mg/kg/injection, schedule: Q01DX009 (ip), vehicle: saline): 95 % of control and 100 % of control
- T/C (dose: 2.0 mg/kg/injection, schedule: Q01DX009 (ip), vehicle: sodium bicarbonate): 95 % of control
- T/C (dose: 3.0 mg/kg/injection, schedule: Q01DX009 (ip), vehicle: saline): 112 % of control
- T/C (dose: 4.0 mg/kg/injection, schedule: Q01DX009 (ip), vehicle: sodium bicarbonate): 100 % of control

Structure (SMILES): c1ccc([C@H]2CN3CCSC3=N2)cc1
- T/C [2]: 98 % of control and 105 % of control
- T/C (dose: 10.0 mg/kg/injection, schedule: Q01DX005 (ip), vehicle: saline): 120 % of control and 93 % of control
- T/C [1]: 89 % of control and 94 % of control and 98 % of control
- T/C (dose: 20.0 mg/kg/injection, schedule: Q01DX005 (ip), vehicle: saline): 96 % of control and 112 % of control
- T/C [3]: 87 % of control and 89 % of control and 98 % of control
- T/C (dose: 40.0 mg/kg/injection, schedule: Q01DX005 (ip), vehicle: saline): 93 % of control and 108 % of control
- T/C [4]: 103 % of control

Structure (SMILES): CCCCCN(C)/N=N/c1nc[nH]c1C(N)=O
- T/C (dose: 32.0 mg/kg/injection, schedule: Q01DX005 (ip), vehicle: saline with Tween-80): 120 % of control

Structure (SMILES): O=c1[nH]cc(F)c(=O)[nH]1
- T/C [2]: 104 % of control and 108 % of control
- T/C [1]: 90 % of control and 116 % of control
- T/C [3]: 104 % of control and 112 % of control
- T/C [4]: 87 % of control and 109 % of control

Structure (SMILES): CN(N=O)C(=O)N[C@@H](C=O)[C@@H](O)[C@H](O)[C@H](O)CO
- T/C (dose: 0.12 mg/kg/injection, schedule: Q01DX009 (ip), vehicle: citric acid): 101 % of control
- T/C (dose: 0.25 mg/kg/injection, schedule: Q01DX009 (ip), vehicle: citric acid): 94 % of control
- T/C (dose: 0.5 mg/kg/injection, schedule: Q01DX009 (ip), vehicle: citric acid): 104 % of control
- T/C (dose: 1.0 mg/kg/injection, schedule: Q01DX009 (ip), vehicle: citric acid): 102 % of control
- T/C (dose: 2.0 mg/kg/injection, schedule: Q01DX009 (ip), vehicle: citric acid): 102 % of control
- T/C (dose: 5.0 mg/kg/injection, schedule: Q01DX009 (ip), vehicle: citric acid): 102 % of control
- T/C (dose: 10.0 mg/kg/injection, schedule: Q01DX009 (ip), vehicle: citric acid): 108 % of control
- T/C (dose: 0.12 micrograms/kg/injection, schedule: Q01DX009 (ip), vehicle: citric acid): 94 % of control

Structure (SMILES): N=[N+]=CC(=O)CCC(NC(=O)C(CCC(=O)C=[N+]=N)NC(=O)CCC(N)C(=O)O)C(=O)O (stereo not given)
- T/C (dose: 0.05 mg/kg/injection, schedule: Q01DX005 (ip), vehicle: Klucel (hydroxypropylcellulose) (HPC)): 124 % of control and 108 % of control
- T/C (dose: 0.1 mg/kg/injection, schedule: Q01DX005 (ip), vehicle: Klucel (hydroxypropylcellulose) (HPC)): 97 % of control and 108 % of control
- T/C (dose: 0.2 mg/kg/injection, schedule: Q01DX005 (ip), vehicle: Klucel (hydroxypropylcellulose) (HPC)): 120 % of control and 111 % of control
- T/C (dose: 0.4 mg/kg/injection, schedule: Q01DX005 (ip), vehicle: Klucel (hydroxypropylcellulose) (HPC)): 112 % of control

Structure (SMILES): OC(C1CO1)C(O)C1CO1 (stereo not given)
- T/C (dose: 0.12 mg/kg/injection, schedule: Q01DX009 (ip), vehicle: saline): 100 % of control and 101 % of control
- T/C (dose: 0.25 mg/kg/injection, schedule: Q01DX009 (ip), vehicle: saline): 122 % of control and 110 % of control
- T/C (dose: 0.5 mg/kg/injection, schedule: Q01DX009 (ip), vehicle: saline): 94 % of control and 112 % of control
- T/C (dose: 1.0 mg/kg/injection, schedule: Q01DX009 (ip), vehicle: saline): 120 % of control and 103 % of control
- T/C (dose: 2.0 mg/kg/injection, schedule: Q01DX009 (ip), vehicle: saline): 123 % of control

Structure (SMILES): CS(C)=O
- T/C (dose: 1000.0 mg/kg/injection, schedule: Q01DX005 (ip), vehicle: saline): 103 % of control
- T/C (dose: 2000.0 mg/kg/injection, schedule: Q01DX005 (ip), vehicle: saline): 97 % of control and 100 % of control and 108 % of control
- T/C (dose: 4000.0 mg/kg/injection, schedule: Q01DX005 (ip), vehicle: saline): 101 % of control and 109 % of control and 114 % of control

Structure (SMILES): COc1cc(NS(C)(=O)=O)ccc1Nc1c2ccccc2nc2ccccc12
- T/C (dose: 0.5 mg/kg/injection, schedule: Q01DX009 (ip), vehicle: distilled water + Tween-80): 88 % of control
- T/C (dose: 1.0 mg/kg/injection, schedule: Q01DX009 (ip), vehicle: distilled water + Tween-80): 116 % of control
- T/C (dose: 2.0 mg/kg/injection, schedule: Q01DX009 (ip), vehicle: distilled water + Tween-80): 109 % of control
- T/C (dose: 4.0 mg/kg/injection, schedule: Q01DX009 (ip), vehicle: distilled water + Tween-80): 101 % of control
- T/C (dose: 5.0 mg/kg/injection, schedule: Q04DX003 (ip), vehicle: Klucel (hydroxypropylcellulose) (HPC)): 94 % of control
- T/C (dose: 5.0 mg/kg/injection, schedule: Q04DX003 (ip), vehicle: saline): 108 % of control
- T/C (dose: 8.0 mg/kg/injection, schedule: Q01DX009 (ip), vehicle: distilled water + Tween-80): 97 % of control
- T/C (dose: 10.0 mg/kg/injection, schedule: Q04DX003 (ip), vehicle: saline): 112 % of control

Structure (SMILES): CN(C)N=Nc1ccc2c(c1)N(C)c1ccc(Cl)cc1S2
- T/C [5]: 97 % of control
- T/C [6]: 101 % of control
- T/C [7]: 102 % of control
- T/C [8]: 112 % of control

Structure (SMILES): CN(C)N=Nc1cccc2c1N(C)c1ccc(F)cc1S2
- T/C [5]: 109 % of control
- T/C [6]: 110 % of control
- T/C [7]: 108 % of control
- T/C (dose: 50.0 mg/kg/injection, schedule: Q01DX009 (ip), vehicle: other): 115 % of control
- T/C [8]: 112 % of control

Source: PubChem BioAssay AID196 (DTP/NCI, 2004)
